In this series the target is ATP-binding cassette sub-family C member 2 (Rattus norvegicus, UniProt Q63120). Put plainly: TP_TRANSPORTER: uptake in bile canalicular membrane vesicles from Wistar/TR- rat. The class given is functional, cell membranes, Bile canalicular membrane vesicle.

Our source for the Activity values is ChEMBL document CHEMBL2074510, “Defective ATP-dependent bile canalicular transport of organic anions in mutant (TR-) rats with conjugated hyperbilirubinemia” (Proc Natl Acad Sci U S A, 1990).

Sequence of ATP-binding cassette sub-family C member 2 (Q63120 whole entry): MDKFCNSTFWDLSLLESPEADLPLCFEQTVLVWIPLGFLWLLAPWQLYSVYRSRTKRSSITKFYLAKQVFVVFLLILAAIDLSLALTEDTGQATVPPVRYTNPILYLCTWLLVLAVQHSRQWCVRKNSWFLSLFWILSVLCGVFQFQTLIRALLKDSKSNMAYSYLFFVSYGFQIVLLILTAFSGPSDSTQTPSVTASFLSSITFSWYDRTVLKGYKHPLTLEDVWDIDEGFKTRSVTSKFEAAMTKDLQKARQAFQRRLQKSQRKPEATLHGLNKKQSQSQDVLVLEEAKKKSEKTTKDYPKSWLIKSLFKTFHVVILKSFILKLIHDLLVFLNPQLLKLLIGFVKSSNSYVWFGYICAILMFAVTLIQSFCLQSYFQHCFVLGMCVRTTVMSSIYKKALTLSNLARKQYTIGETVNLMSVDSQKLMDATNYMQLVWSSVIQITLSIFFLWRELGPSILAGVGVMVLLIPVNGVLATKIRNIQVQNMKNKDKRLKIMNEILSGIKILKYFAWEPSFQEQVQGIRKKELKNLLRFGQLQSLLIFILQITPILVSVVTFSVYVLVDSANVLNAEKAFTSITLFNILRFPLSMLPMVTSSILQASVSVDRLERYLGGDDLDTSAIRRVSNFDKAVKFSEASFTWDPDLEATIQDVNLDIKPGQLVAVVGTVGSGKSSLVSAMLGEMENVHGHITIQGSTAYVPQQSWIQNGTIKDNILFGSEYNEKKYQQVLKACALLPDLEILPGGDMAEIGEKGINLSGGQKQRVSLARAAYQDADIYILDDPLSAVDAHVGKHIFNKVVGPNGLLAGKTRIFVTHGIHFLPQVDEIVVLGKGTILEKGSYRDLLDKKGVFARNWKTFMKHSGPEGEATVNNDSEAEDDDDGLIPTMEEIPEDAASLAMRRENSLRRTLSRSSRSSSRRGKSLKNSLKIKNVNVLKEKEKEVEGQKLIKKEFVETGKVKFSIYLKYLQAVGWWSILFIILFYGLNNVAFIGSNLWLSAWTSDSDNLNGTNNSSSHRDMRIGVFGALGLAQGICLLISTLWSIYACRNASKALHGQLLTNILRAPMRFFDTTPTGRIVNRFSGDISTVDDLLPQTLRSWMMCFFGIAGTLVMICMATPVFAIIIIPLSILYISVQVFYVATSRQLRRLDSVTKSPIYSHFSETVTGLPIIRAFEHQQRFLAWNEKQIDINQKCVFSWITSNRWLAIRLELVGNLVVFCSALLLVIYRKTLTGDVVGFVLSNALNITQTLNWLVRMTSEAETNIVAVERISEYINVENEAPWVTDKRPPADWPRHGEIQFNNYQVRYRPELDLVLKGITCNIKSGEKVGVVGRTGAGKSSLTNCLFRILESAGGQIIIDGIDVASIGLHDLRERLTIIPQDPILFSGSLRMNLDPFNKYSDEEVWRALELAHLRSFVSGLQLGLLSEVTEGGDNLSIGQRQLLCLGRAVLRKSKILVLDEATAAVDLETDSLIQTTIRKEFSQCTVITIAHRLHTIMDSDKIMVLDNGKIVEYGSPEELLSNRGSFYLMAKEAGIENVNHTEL

Turning to `N[C@@H](CCC(=O)N[C@@H](CSc1c(Br)c(Br)c2c(c1Br)C(=O)OC2(c1ccc(O)c(S(=O)(=O)O)c1)c1ccc(O)c(S(=O)(=O)O)c1)C(=O)NCC(=O)O)C(=O)O`, the Activity entry was “substrate [+]”.
